# Laboratory results from PubChem BioAssay AID1330 (NMMLSC, 2008).
# Active and inactive are the calls of the source. No rule for the calls is given here.
# Molecular target: Bcl-2-like protein 2 (Homo sapiens) (UniProt Q92843)
# Assay: modulators of Bim-Bcl-W protein interaction, dose response, biochemical, multiplexed, bead-based flow cytometry, fluorescence (AID 1330)
# Conditions: Bim-Bcl-W binding
# Chain of Bcl-2-like protein 2 (Homo sapiens) (Q92843 whole entry, looked up): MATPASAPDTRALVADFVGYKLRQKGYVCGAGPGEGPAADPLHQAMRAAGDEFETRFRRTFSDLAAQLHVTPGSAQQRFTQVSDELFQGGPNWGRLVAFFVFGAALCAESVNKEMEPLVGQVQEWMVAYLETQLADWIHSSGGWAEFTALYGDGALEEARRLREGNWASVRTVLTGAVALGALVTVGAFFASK
row,Compound,EC50
1,CCC(=O)N(CC)C1=C(O)c2ccccc2C(=O)C1=O,inactive
2,O=[N+]([O-])c1ccc(N/N=C/c2ccc(O)c(O)c2O)c(S(=O)(=O)N2CCOCC2)c1,3.52 µM

# Further lines, results first:
row,EC50,Compound
1,inactive,COc1cccc(/C=N/Nc2nn3cnnc3c3ccccc23)c1
2,inactive,O=C(N/N=C/c1ccc(O)c(O)c1O)/C(=C/c1ccc([N+](=O)[O-])cc1)NC(=O)c1ccccc1
3,inactive,COc1cccc(/C=N/Nc2nn3cnnc3c3ccccc23)c1O
